Tests used:
[1] = tested on: TPA induced mouse ear edema; conditions: cited from earlier work
[2] = tested on: ear weight gain produced by multiple doses of TPA in mice; conditions: cited from earlier work
[3] = tested on: TPA induced mouse ear edema; assay: Acute TPA mouse ear inflammation assay, edema (ear weight); type: in vivo
Description: The anti-inflammatory effect of selected compounds of this invention were compared to those of Triclosan™ and hydrocortisone in a modified […] (TPA) mouse ear inflammation assay. TPA was used as an inflammogen rather than croton oil because TPA gives a well characterized inflammatory response at very low concentrations. […] This model can therefore be used to study the pharmacokinetics, clinical efficacy and adverse side effects of anti-inflammatory agents. To quantitate inflammation, ear punches from treated animals were used to measure increased ear mass (edema) and myeloperoxidase (MPO) activity. For the inhibition studies, ear biopsies were weighed six hours after treatment with TPA and the simultaneous application of the compound of the present invention. All the compounds were diluted in acetone. Following this, the biopsies were frozen and subsequently used to measure inhibition of MPO activity, an estimate of polymorphonuclear (PMN) […] activity in the affected area. Percent inhibition of edema was calculated as [c-t]/c x 100, where c and t are increases in ear weight in control and treated mice, respectively.
Initially a dose-response curve for TPA-induced mouse ear edema was generated in order to determine the concentration of TPA to be employed in the inhibition studies. TPA produced a theoretical dose-response curve for edema with an ED50 of 80 ng/ear and an ED90 of 200 ng/ear in two separate experiments. ED50 is the dose at which 50% of the maximum effect was observed while ED90 is the dose at which 90% of the maximum effect was observed. […] The ED50 values for the compounds tested are as follows: […]

[4] = tested on: ear weight gain produced by multiple doses of TPA in mice; assay: Chronic (multiple dose) TPA mouse ear inflammation assay, ear weight gain; type: in vivo, mouse (female CD-1); conditions: for Decrease in weight relative to TPA treated biopsies: 20 μg HCV/ear; for % Inhibition of Ear Weight Gain, Relative to Hydrocortisone (HCV) = 100%: head prints 1.25 eg/ear
Experimental: The acute skin inflammation model described in Example 1, tests the ability of a compound to prevent inflammation and thus must be applied prophylactically. Most clinical situations, however, are present as chronic inflammatory conditions. […] The effects of the compounds of the present invention and Salifluor on chronically inflamed skin was measured in the mouse ear model that utilizes multiple TPA doses over a 10-day period to produce the inflammatory response.
The assay used female CD-1 mice (7-9 weeks of age). Following a 2-week quarantine, mice were randomly assigned to test groups (5 mice/groups). TPA (10 uL of 0.01 TPA in acetone) was administered to both the inner and outer surface of each ear (2μg/ear) on day 0,2,4,7, and 9 on protocol. On Day 7,8 and 9, two applications of test article were applied to each ear 2 and 4 hours after dosing with TPA. The test articles were administered in 10 uL aliquots to both the inner and outer surface of each ear (20 μl total/dose). […] Hydrocortisone-17-valerate (HCV, 20μg/ear) was employed as a positive control. Mice were sacrificed at Day 10 on protocol and uniform punch biopsies (approximately 8 mm dia.) were taken from each ear. While on protocol, dermal irritation was scored semiquantitatively at Day 1,3,5,8, and 10.
(§1) Inhibition of TPA stimulated increased ear weight was used as an initial measure of efficacy for all of the agents tested. One biopsy from each mouse was also quick frozen and stored at -70° C. for later assay of myleoperoxidase, an enzyme associated with infiltrating PMN, or other measure of efficacy. The remaining biopsy from each mouse treated with Trifluorosal or HCV was fixed in formalin and processed for histopathologic evaluation, including measurement of cellular infiltration (PMNs, endothelial cells, macrophages) and epidermal thickness at 20 random sites along the length of the specimen.
Initially, a dose-response curve for multiple doses of TPA to produce mouse ear weight gain was generated in order to determine the concentration of TPA to be employed in the inhibition studies. […] Another major difference between the multiple TPA dose (or chronic assay for inflammation) and the single TPA dose (or acute assay for inflammation) in the mouse ear is sensitivity to Non-steroidal antiinflammatory drugs (NSAIDs) and antihistamines.

[5] = tested on: TPA treated mouse ear skin; assay: Histopathology of ear biopsies after multiple doses of TPA (epidermal thickness, dermal cellularity); type: in vivo, mouse (female CD-1)
Experimental: The assay used female CD-1 mice (7-9 weeks of age). Following a 2-week quarantine, mice were randomly assigned to test groups (5 mice/groups). TPA (10 uL of 0.01 TPA in acetone) was administered to both the inner and outer surface of each ear (2μg/ear) on day 0,2,4,7, and 9 on protocol. On Day 7,8 and 9, two applications of test article were applied to each ear 2 and 4 hours after dosing with TPA. The test articles were administered in 10 uL aliquots to both the inner and outer surface of each ear (20 μl total/dose). The candidate drugs were tested at several different concentrations (e.g., 5, 1.25, and 0.125 mg/ear) to determine a maximum effective dose within a range that could be effectively applied. Hydrocortisone-17-valerate (HCV, 20μg/ear) was employed as a positive control. Mice were sacrificed at Day 10 on protocol and uniform punch biopsies (approximately 8 mm dia.) were taken from each ear. While on protocol, dermal irritation was scored semiquantitatively at Day 1,3,5,8, and 10.
as §1
In order to confirm the subjective observations, quantitative determinations of 3 parameters (epidermal thickness, dermal thickness, and dermal cellularity) in the skin of negative controls (acetone), positive controls (TPA), and TPA treated skin treated with 3 doses of test article (Trifluorosal) and hydrocortisone were carried out. Epidermal thickness reflects the reactive proliferative activity induced by TPA in the […]: dermal thickness reflects primarily Ad edema but may also be affected by other phenomena, such as formation of granulation tissue, collagen synthesis, the activity of myofibroblasts, etc. Cellularity of the dermis is frequently used as a surrogate marker of inflammatory changes in the dermis.
Determination of the epidermal thickness was performed under the microscope with a calibrated scale placed in the eyepiece. Ten determinations were carried out in the epidermis covering the outside of the ear using a 40× objective and a 10× eyepiece (400× total). The measurements were taken from the basal side of the basal layer (basement membrane) to the outer side of the last nucleated cell of the […]. The average of the 10 measurements expressed in microns was entered in the table.
Determination of dermal thickness was performed using a similar technique. To avoid variability caused by the difference in sizes between the base and tip of the ear, only 3 measurements were performed in the center of the sample. The measurements were performed from the basement membrane of the external and internal epithelial and therefore include, in addition to both dermis (external and internal), the cartilage.
Cellularity of the dermis was calculated by projecting a calibrated grid into the dermis and counting cells in the known area of the dermis. Areas of hair follicles or sebaceous glands were avoided. Five fields were counted and the results were adjusted to the number of cells in 1,000 square microns.
The results of individual animals were entered in the table and the averages and standard deviation were calculated using an EXCEL database. In addition, the results were also expressed as a percentage of the control (acetone treated). Furthermore, the percentage of inhibition of the test articles were calculated using the following formula: [formula]

[6] = Solubility of representative compounds in various solvent systems; type: physicochemical
Experimental: The solubility of representative compounds of this invention in various solvent systems was determined. The solvents included ethanol, propylene glycol, SLS, Tween 80™ and combinations thereof.

[7] = Single dose oral tolerance in rats; type: in vivo, rat (male weaning Sprague-Dawley); conditions: single dose 2.5 or 0.75 g/kg in 5% CMC, 7 days
Experimental: To test for tolerance of the administered compounds, male weaning Sprague-Dawley rats were fed in a single dose of 2.5 or 0.75 g/kg of TMF-12, TMF-10, TMC-10 or TPC-10 in 5% carboxymethyl cellulose (CMC) or CMC alone. […] At completion of the 7 day observation period, necropsies were performed on all animals.

[8] = in vivo; cited from earlier work
[9] = inflammogen dose-response, two separate experiments, 6 hours
[10] = aqueous buffer, pH 10 K-buffer @ 35° C.
[11] = aqueous buffer, pH 10 Na-buffer @ 22° C.
[12] = organic solvent or mixture, Ethanol @ 19° C.
[13] = organic solvent or mixture, Propylene Glycol @ 20° C.
[14] = ph 10 na-buffer +0.5% sls, pH 10 Na-buffer @ 22° C. +0.5% SLS

COc1ccc2cc([C@H](C)C(=O)O)ccc2c1 [Naproxen]
Inhibition of acute TPA assay by NSAIDs [1]: inhibited

O=C(O)Cc1ccccc1Nc1c(Cl)cccc1Cl [diclofenac]
Sensitivity of chronic TPA assay to NSAIDs [2]: insensitive

CC(C)Cc1ccc(C(C)C(=O)O)cc1 (stereo not shown) [Ibuprofen]
Inhibition of acute TPA assay by NSAIDs [1]: inhibited

CCCCCCCCCCCCCC(=O)O[C@@H]1[C@@H](C)[C@@]2(O)[C@@H](C=C(CO)C[C@]3(O)C(=O)C(C)=C[C@@H]23)[C@@H]2C(C)(C)[C@]12OC(C)=O [TPA, 12-tetradecanoyl 13-phorbol acetate, reference compound]
ED50 for TPA-induced ear edema [3, 9]: 80 ng/ear | ED90 for TPA-induced ear edema [3, 9]: 200 ng/ear | Dose of TPA producing maximal ear weight gain ([4]; multiple doses of TPA): 2 μg/ear | Dose of TPA with marginal effects on ear weight gain ([4]; multiple doses of TPA): below 1 μg/ear | Histopathological change produced by multiple doses of TPA ([5]; multiple doses of TPA): dramatic hyperplasia of the epidermis as well as inflammatory changes in the dermis

CN1C(C(=O)Nc2ccccn2)=C(O)c2ccccc2S1(=O)=O [piroxicam]
Sensitivity of chronic TPA assay to NSAIDs [2]: insensitive

CCCCC(=O)O[C@]1(C(=O)CO)CC[C@H]2[C@@H]3CCC4=CC(=O)CC[C@]4(C)[C@H]3[C@@H](O)C[C@@]21C [Hydrocortisone 17-valerate, Hydrocortisone-17-valerate, reference compound]
Decrease in weight relative to TPA treated biopsies ([4]; Assay #1): 71% | Decrease in weight relative to TPA treated biopsies ([4]; Assay #2): 107% | Inhibition of ear weight gain ([4]; 20μg/ear, first experiment): 86%

CCCCCCCCCCS(=O)(=O)c1ccc(O)c(C(=O)Nc2ccc(C#N)cc2)c1 [TPC-10]
solubility ([6]; +1% sls): 690 µg/mL | solubility ([6]; +2% sls): 910 µg/mL | solubility ([6]; +4% sls): 1810 µg/mL | solubility [6, 10]: 3.45 µg/mL | solubility [6, 11]: 9.16 µg/mL | solubility [6, 12]: 11500 µg/mL | solubility [6, 13]: 810 µg/mL | solubility [6, 14]: 300 µg/mL | % Inhibition of Ear Weight Gain, Actual ([4]; multiple doses of TPA): 0% | % Inhibition of Ear Weight Gain, Relative to Hydrocortisone (HCV) = 100% ([4]; multiple doses of TPA): 0% | Illness or deaths [7]: No illness or deaths occurred

Oc1cc(Cl)ccc1Oc1ccc(Cl)cc1Cl [Triclosan, 2',4,4'-trichloro-2-hydroxy-diphenyl-ether]
Anti-inflammatory activity in clinical trials [8]: have been reported to have anti-inflammatory activity in clinical trials

CCCCCCCCS(=O)(=O)c1ccc(O)c(C(=O)Nc2cccc(C(F)(F)F)c2)c1 [TMF-8]
% Inhibition of Ear Weight Gain, Actual ([4]; multiple doses of TPA): 0% | % Inhibition of Ear Weight Gain, Relative to Hydrocortisone (HCV) = 100% ([4]; multiple doses of TPA): 0%

CCCCCCCCCCS(=O)(=O)c1ccc(O)c(C(=O)Nc2cccc(C#N)c2)c1 [TMC-10]
solubility ([6]; +0.5% tween 80): 770 µg/mL | solubility ([6]; +1% sls): 4270 µg/mL | solubility ([6]; +1.5% tween 80): 2240 µg/mL | solubility ([6]; +2% SLS + 0.5% Tween 80): 3980 µg/mL | solubility ([6]; +2% SLS + 1.0% Tween 80): 4740 µg/mL | solubility ([6]; +2% SLS + 2.0% Tween 80): 5050 µg/mL | solubility ([6]; +2% sls): 6680 µg/mL | solubility ([6]; +3.0% tween 80): 4690 µg/mL | solubility ([6]; +4% sls): 7900 µg/mL | solubility [6, 10]: 5.58 µg/mL | solubility [6, 11]: 7.2 µg/mL | solubility [6, 12]: 36700 µg/mL | solubility [6, 13]: 1940 µg/mL | solubility [6, 14]: 3130 µg/mL | % Inhibition of Ear Weight Gain, Actual ([4]; multiple doses of TPA): 0% | % Inhibition of Ear Weight Gain, Relative to Hydrocortisone (HCV) = 100% ([4]; multiple doses of TPA): 0% | Illness or deaths [7]: No illness or deaths occurred

C[C@]12CCC(=O)C=C1CC[C@@H]1[C@@H]2[C@@H](O)C[C@@]2(C)[C@H]1CC[C@]2(O)C(=O)CO [Hydrocortisone, reference compound]
Relative anti-inflammatory potency (in words) ([3]; acute assay): the most potent anti-inflammatory agent tested | % Inhibition, Dermal Cellularity ([5]; 0.02 mg/ear): 78.6% | % Inhibition, Epidermal Thickness ([5]; 0.02 mg/ear): 58.6% | Blood vessel prominence (in words) ([5]; histopathology): Blood vessels were not as prominent | Cellularity of the dermis (in words) ([5]; histopathology, FIG. 1): reduced the epidermal thickness as well as the cellularity of the dermis | Epidermal thickness (in words) ([5]; histopathology, FIG. 1): reduced the epidermal thickness

— US6117859A, “Method of relieving chronic inflammation by using 5-alkylsulfonylsalicylanilides” (The Research Foundation of State University of New York, priority 1999, dated 2000)
